# Results reported in patent US20210154170A1, “METHODS OF TREATING NEUROPATHIC PAIN” (Biogen MA Inc., priority 2018, published 2021).
# Where two headings read alike, the source gives them in different places.
# Key:
# [1] = Phase 1 study of effect of UGT inhibition by valproic acid on PK of BIIB074; format: in vivo, human; conditions: for AUC(0-inf) / AUC(0-t) / Cmax: human, plasma, oral; for AUC(0-inf): read-out: AUCinf, Geo LS mean; for AUC(0-t): read-out: AUClast, Geo LS mean; for Cmax: read-out: Cmax, Geo LS mean
# Description: In clinical practice BIIB074 may be coadministered with UGT inhibitors, which could potentially increase exposure to BIIB074 by reducing the extent of BIIB074 metabolism by UGTs. Valproic acid, which has long been used as a medication to treat seizures and bipolar disorder, is a non specific inhibitor of UGTs and has been used as a probe to determine the effect of UGT inhibition on the PK of compounds that are metabolized by multiple UGTs. Herein, the potential of the UGT inhibitor valproic acid to alter the single dose PK, safety, and tolerability of BIIB074 was assessed to inform the feasibility and safety of coadministration of BIIB074 with compounds known to inhibit UGTs.
# • To evaluate the effect of multiple doses of the uridine diphosphate glucuronosyltransferase (UGT) inhibitor valproic acid on the single dose PK of BIIB074. • The primary endpoints that relate to this objective are: maximum observed concentration (Cmax), area under the curve (AUC) from time 0 to infinity (AUCinf), and AUC from time 0 to time of the last measurable concentration (AUClast) for BIIB074. • Other endpoints that relate to the primary objective are the time to reach Cmax (Tmax), time of the last measurable concentration (Tlast), t1/2 apparent clearance (CL/F), and apparent volume of distribution (V/F) for BIIB074.
# [2] = test system: patients with lumbosacral radiculopathy; conditions: PLSR, 350 mg bid, Phase 2, cited from earlier work
# trigeminal neuralgia = conditions: TN, 150 mg tid; cited from earlier work
# [3] = BIIB074 with valproic acid/BIIB074 alone
# [4] = single dose BIIB074 with valproic acid
structure (smiles),measurement,setting,value
"Cl.NC(=O)[C@@H]1CC[C@H](c2ccc(OCc3ccccc3F)cc2)N1 [Example 1, (5R)-5-(4-{[(2-Fluorophenyl)methyl]oxy}phenyl)-L-prolinamide hydrochloride]","AUCinf, Geo LS mean ratio",[1]; [3],1.68
same,"AUClast, Geo LS mean ratio",[1]; [3],1.69
same,"Cmax, Geo LS mean ratio",[1]; [3],0.97
same,AUC(0-inf),[1]; single dose BIIB074 alone,16000 ng·h/mL
same,AUC(0-t),[1]; single dose BIIB074 alone,15700 ng·h/mL
same,Cmax,[1]; single dose BIIB074 alone,1310 ng/mL
same,AUC(0-inf),[1]; [4],26900 ng·h/mL
same,AUC(0-t),[1]; [4],26500 ng·h/mL
same,Cmax,[1]; [4],1260 ng/mL
same,Elimination with valproic acid,[1]; in vivo,prolonged
same,Exposure (AUC) with valproic acid compared to BIIB074 alone,[1]; in vivo,increased
same,Exposure based on AUCinf and AUClast higher with valproic acid than alone,[1]; in vivo,~70%
same,Change in Cmax with valproic acid compared to BIIB074 alone,"[1]; in vivo, listed as BIIB074, hydrochloride",no change
same,Plasma exposure higher with valproic acid at steady state than alone,[1]; single dose,approximately 1.7 fold
same,Clinical efficacy,[2]; hydrochloride,EFFICACY OBSERVED in
same,Clinical efficacy,"[2]; listed as CNV1014802, hydrochloride",demonstrated clinical benefit
same,Clinical efficacy,trigeminal neuralgia,EFFICACY OBSERVED in TN
